From patent US7989495B2, “Compositions and methods for inhibiting NF-κB mediated tumorigenicity and adhesion dependent survival of cancer cells” (University of Utah Research Foundation, priority 2002, dated 2011)
Entries after “also recorded” stand apart in the source; their conditions may differ.

Tests used:
[1] = test system: TNFα-induced NF-κB activation; settings: Pierce et al., 1997; cited from earlier work
[2] = test system: transiently suspended HT-29 cells; assay: Apoptosis (annexin V) of transiently suspended cells allowed to readhere; type: cell-based
Description: HT-29 cells that were either transiently suspended with trypsin-EDTA or adherent for three days, were treated at time zero with DMSO or 10-100 μM BAY 11-7085. The percent of apoptotic cells was determined using the annexin V flow cytometry assay and graphed versus the dose of BAY 11-7085. […] The cells were fixed and immunostained with an NF-κB p65 subunit monoclonal antibody.
The transiently suspended cells were lysed and allowed to bind to DNA oligonucleotides, containing the NF-κB consensus binding site, that were immobilized to 96-well plates. NF-κB protein bound to the oligonucleotides was detected by an antibody to the p65 subunit that only recognized p65 that is bound to DNA. The positive control was HeLa cells that were stimulated with TNFα A control was performed using excess free NF-κB oligonucleotides (Competitor). […] NF-κB binding activity was determined by the TransAM assay as in FIG. 5A. […] The data shown represent typical results of three separate experiments. […] An immunoblot for COX-2 was performed.
The percentage of apoptotic cells was determined using the annexin V assay. The data points represent the averages of three experiments; bars, ±SE. E. DLD-1 and F. HT-29 cells were transduced with an adenovirus containing the IκB super-repressor construct. After 3 days, the cells were transiently suspended and allowed to readhere in the presence of subapoptotic concentrations of BAY 11-7085 or DMSO (vehicle) for 8 h. The data are expressed as fractions of cells surviving compared with the controls (no adenovirus) and were quantitatively determined by staining the remaining adherent cells with crystal violet.
Single cell suspensions were plated at 100,000 cells per well in 24-well plates in media containing DMSO, BAY 11-7082, BAY 11-7085, or MG-132 for 8-24 hours in an incubator. Alternatively, DMSO, BAY 11-7082, BAY 11-7085, or MG-132 were added to cells that were confluent and adherent for several days. The nonadherent cells were aspirated off with the media and spun for 3 minutes at 2,000 rpm in 15 ml polypropylene tubes. The adherent cells were washed twice with PBS, dispersed in trypsin, and spun down for 3 minutes at 2,000 rpm in 15 ml polypropylene tubes. The nonadherent and adherent cells were resuspended in 1× binding buffer (10 mM HEPES/NaOH, pH 7.4, 140 mM NaCl, and 2.5 mM CaCl2) to a final concentration of 10^6 cells/ml. 100 μl of the cell solution were transferred to a 5 ml culture tube and incubated with 5 μl of annexin V-FITC-conjugated monoclonal antibody (Pharmingen) and 10 μl of propidium iodide (from a 50 μg/ml stock solution made in PBS) in the dark at 25° C. for 15 minutes. 400 μl of binding buffer was added to each tube and the cells were analyzed by flow cytometry immediately. The percent of apoptosis was determined as the percent of annexin V-positive, propidium iodide-negative cells of the total cells counted.
Various concentrations of BAY 11-7085 were added to HT-29 cells that were transiently suspended in trypsin-PBS for approximately 15 minutes before replating. The transiently suspended cells were quickly allowed to readhere in order to prevent anoikis. Alternatively, BAY 11-7085 was added to adherent HT-29 cell monolayers.

JNK/SAPK and p38 = settings: Pierce et al., 1997; cited from earlier work
arthritis = settings: Pierce et al., 1997; cited from earlier work
HT-29 xenografts = assay: Subcutaneous colon cancer xenograft in athymic mice; type: in vivo; settings: for tumor volumes, treatment group compared with control group: HT-29 subcutaneous tumors, 1 mg/kg twice weekly for 28 days, vs DMSO
Description: DLD-1, HCT-116, and HT-29 cells were cultured for 6 days in soft agar in the presence of DMSO (control), 10 μM BAY 11-7082, or 10 μM BAY 11-7085. The data points represent the means of colony counts per field (20×) performed in 5 different regions of the culture dishes. The data shown represent a typical result of two separate experiments. FIGS. 2B,C, show athymic mice received subcutaneous injections of HT-29 (B) or HCT-116 (C) cells, followed by […] of BAY 11-7085 (dark bars) or DMSO (white bars) intraperitoneally twice weekly. The bars represent the 25-75% ranges of the tumor volumes and the horizontal lines in the bars are the medians. Using the Kruskal-Wallace statistical test to compare the median tumor volumes between BAY 11-7085 and DMSO yielded a p-value of 0.005 for HT-29 cells but >0.05 for HCT-116 cells.
HT-29 and HCT-116 cells were harvested in 0.25% trypsin-PBS-EDTA, washed once in media and PBS, and resuspended in PBS at 1 million cells per 200 μL. One million cells were injected either subcutaneously in the backs or intraperitoneally in 5 week old female nu/nu athymic mice (Charles River Labs). For the mice with subcutaneous tumors, the tumors were allowed to establish themselves for 10 days after which they were randomized to BAY 11-7085 or DMSO. For the mice with intraperitoneal tumors, the mice received DMSO or BAY 11-7085 (5 mg/kg) 24 hours before the cancer cells were injected intrapentoneally. All mice received BAY 11-7085 (5 mg/kg) or an equal volume of DMSO (˜200 μL) twice weekly for 21-32 days. Subcutaneous tumor sizes were determined by measuring the length and width with calipers. These studies were approved by the U. of Utah Institutional Review Board and Institutional Animal Care and Use Committee and performed in the Animal Resource Center. Mice were euthanized when they experienced a greater than 10% loss in body weight or if they appeared ill. Post-mortem examinations included sectioning of kidney, lung, and liver tissues which were stained with hematoxylin and eosin followed by examination for tissue toxicity/damage by an experienced mouse pathologist (E.J.E.) who was blinded to therapy.
(Wang et al., 1999) However, BAY 11-7082 or BAY 11-7085 alone inhibit colon cancer xenograft growth in athymic mice. HC-116, and HT-29 cell lines were used to generate subcutaneous tumors in athymic female mice. The mice were subsequently randomized to be treated with vehicle (DMSO) alone or BAY 11-7085 1 mg/kg twice weekly for 28 days.

Structure (SMILES) | effect on TNFα-induced NF-κB activation [1] | share of transiently suspended, readhering cells that became apoptotic ([2]; HT-29) | effect on JNK/SAPK and p38 (JNK/SAPK and p38) | effect on NF-κB and arthritis in rodent models (arthritis) | tumor volumes, treatment group compared with control group (HT-29 xenografts) | in vitro apoptotic threshold during readhesion ([2]; HT-29) [µM] | BAY 11-7085-induced apoptosis during readhesion ([2]; HT-29, transiently suspended, treated, allowed to readhere 8 hours) | apoptosis of transiently suspended cells ([2]; HT-29 suspended in trypsin about 15 minutes then replated, 10-100 μM) | p-value, Kruskal-Wallace test of median tumor volumes vs DMSO (HT-29 xenografts; HT-29, intraperitoneally twice weekly) | tumor volumes, treatment group compared with control group (HT-29 xenografts; 1 mg/kg)
Cc1ccc(S(=O)(=O)/C=C/C#N)cc1 [BAY 11-7082, (2E)-3-(tolysulfonyl)-2-propenenitrile] | inhibit | vast majority | activate JNK/SAPK and p38 | inhibit NF-κB and arthritis in rodent models | reduce tumor volumes | – | – | – | – | –
CC(C)(C)c1ccc(S(=O)(=O)/C=C/C#N)cc1 [BAY 11-7085, (2E)-3-[4-(tertiarybutylphenyl)sulfonyl]-2-propenenitrile] | inhibit | vast majority | activate JNK/SAPK and p38 | inhibit NF-κB and arthritis in rodent models | – | > 20 | showed the same propensity for BAY 11-7085-induced apoptosis | caused a significant increase in apoptosis | 0.005 | statistically significant overall reduction in the tumor volumes; also recorded: reduce tumor volumes
